According to PMC3227451, “Structure-based development of novel sirtuin inhibitors” (Aging (Albany NY), 2011):
Read-outs that look alike come from different tables or passages of the source.

Experiments:
Assay type in all cases: biochemical
Sirt5 = molecular target: T1, Sirt5 (Homo sapiens, UniProt Q9NXA8); assay: Fluor-de-Lys peptide deacetylation assay, Sirt5
T1 construct: Sirt5 residues 34-302; His-tag with linker comprising a TEV protease cleavage site (N); made in house
T1 sequence (Q9NXA8 34-302): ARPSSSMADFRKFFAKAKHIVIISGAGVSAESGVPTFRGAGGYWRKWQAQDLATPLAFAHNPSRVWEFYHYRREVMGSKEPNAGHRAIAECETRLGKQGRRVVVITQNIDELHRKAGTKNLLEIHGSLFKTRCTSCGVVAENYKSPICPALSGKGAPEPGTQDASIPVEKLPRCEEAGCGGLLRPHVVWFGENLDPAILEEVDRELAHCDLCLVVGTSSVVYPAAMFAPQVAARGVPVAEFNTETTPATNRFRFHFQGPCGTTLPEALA
Description: (§1) Sirt3 was expressed in E. coli and purified via Ni-NTA and size exclusion chromatography as described elsewhere, and Sirt5 according to the protocol of Schuetz et al.. […] The protein was bound to the HiTrapQ column in buffer A and eluted in a gradient to buffer A supplemented with 400 mM KCl. Fractions were analyzed by SDS-PAGE, and the Sirt1 fractions were pooled and transferred into buffer A using a NAP column (GE Healthcare).
(§2) The commercial Fluor-de-Lys (FdL) assay kits 1 and 2 (Biomol, Plymouth Meeting, USA) were used to test the deacetylase activity of the four Sirtuins. In both kits the substrate derived from p53 is composed of three amino acids, the acetyl lysine and a C-terminally attached fluorophor. For Sirt2 and 3, FdL-2 peptide (QPK(acetyl-K)) was used, and FdL-1 peptide (RHK(acetyl-K)) for Sirt5 and Sirt6. All tests were done with 0.1 mM of the respective FdL peptide and 0.5 mM NAD^+ as substrates.
(§3) NCI compound stocks were prepared by dissolving them in DMSO at a concentration of 5 mM. The initial screens with all 40 compounds contained 5 μl Sirtuin solution (Sirt2/3 0.1 mg/ml stock concentration; Sirt5/6 1 mg/ml), 1 μl of compound stock (resulting in a 100 μM end concentration), 15 μl FdL substrate, and assay buffer (supplied in the assay kit) to a total volume of 50 μl. As control reactions, peptide with either the compound (without Sirtuin) or with Sirtuin and DMSO instead of compound were measured. After starting the reactions by adding the FdL substrate, assays were incubated for 30 min at 37 °C. Subsequently, 50 μl of a 10 mg/ml trypsin stock (“Developer solution”) were added and the reactions were incubated for 45 min at room temperature. Fluorescence values were measured in a fluorometric plate reader with excitation at 360 nm and read out at 485 nm. Values were then corrected with the control reaction (same compound, but without Sirtuin).
(§4) All measurements shown are averages of duplicates (screen) or triplicates (dose-response curves), and representatives of at least two independent replications. Error bars indicate standard deviations.

Sirt2 = molecular target: T2, Sirt2 (Homo sapiens, UniProt Q8IXJ6); assay: Fluor-de-Lys peptide deacetylation assay, Sirt2
T2 sequence (Q8IXJ6 34-356): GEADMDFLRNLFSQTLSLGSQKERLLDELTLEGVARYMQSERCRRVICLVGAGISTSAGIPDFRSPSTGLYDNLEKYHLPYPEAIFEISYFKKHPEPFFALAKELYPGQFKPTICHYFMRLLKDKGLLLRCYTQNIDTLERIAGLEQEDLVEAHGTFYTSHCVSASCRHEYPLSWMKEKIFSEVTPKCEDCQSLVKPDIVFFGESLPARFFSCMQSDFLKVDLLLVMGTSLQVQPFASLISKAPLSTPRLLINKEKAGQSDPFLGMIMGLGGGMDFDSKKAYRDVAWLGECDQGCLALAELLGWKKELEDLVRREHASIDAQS
Description: The Sirt2 construct was expressed in E. coli Rosetta2 cells (Merck) in LB/Ampicillin/Chloramphenicol medium. Cells were grown at 37 °C, and expression induced at an OD600 of 0.6-0.8 for 4 h with 0.5 mM IPTG. Harvested cells were resuspended in buffer A (50 mM Tris/HCl pH 7.8, 200 mM NaCl, 2 mM DTT), disrupted with a Sonifier, and cell debris removed by 40 min centrifugation at 4 °C, 18000 rpm in a HFA22.50 rotor. The supernatant was supplemented with 10 mM imidazole and incubated with Ni-NTA resin for 1 h at 4 °C. […] The protein was concentrated in an amicon unit (Millipore, Billerica, USA) and digested over night at 4 °C with TEV-protease. The protease was removed from cleaved Sirt2 by incubation with Ni-NTA resin for 1 h at 4 °C. The protein was concentrated, 1:5 diluted with 50 mM Tris/HCl, pH 7.8, and applied to a HiTrap Q anion exchange column (GE Healthcare) equilibrated with 50 mM Tris/HCl, pH 7.8, 50 mM NaCl, 2 mM DTT and eluted with a gradient (20 column volumes) to 50 mM Tris/HCl, pH 7.8, 1 M NaCl, 2 mM DTT. Sirt2 was then applied to a Superdex200 gel filtration column (GE Healthcare) equilibrated in 20 mM Tris/HCl, pH 7.8, 150 mM NaCl, 2 mM DTT. The eluted protein was analyzed by SDS-PAGE, re-concentrated, and shock-frozen in liquid nitrogen for storage at -80 °C.
as §2, §3, §4

Sirt3 = molecular target: T3, Sirt3 (Homo sapiens, UniProt Q9NTG7); assay: Fluor-de-Lys peptide deacetylation assay, Sirt3
T3 construct: Sirt3 residues 114-399; His-tag with linker comprising a TEV protease cleavage site (N); made in house; host or cells: E. coli
T3 sequence (Q9NTG7 114-399): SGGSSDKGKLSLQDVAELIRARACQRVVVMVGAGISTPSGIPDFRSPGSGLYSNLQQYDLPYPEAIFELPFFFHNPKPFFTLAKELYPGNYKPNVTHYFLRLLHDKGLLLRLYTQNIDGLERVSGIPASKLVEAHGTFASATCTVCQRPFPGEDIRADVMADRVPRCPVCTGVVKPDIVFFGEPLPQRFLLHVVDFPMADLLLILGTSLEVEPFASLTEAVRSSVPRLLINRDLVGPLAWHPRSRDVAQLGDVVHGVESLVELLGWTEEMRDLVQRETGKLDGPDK
Description: as §1, §2, §3, §4

Sirt6 = molecular target: T4, Sirt6 (Homo sapiens, UniProt Q8N6T7); assay: Fluor-de-Lys peptide deacetylation assay, Sirt6
T4 construct: Sirt6 residues 13-308; His-tag with linker comprising a TEV protease cleavage site (N, cleaved yes); made in house; host or cells: E. coli Rosetta2
Description: as §2, §3, §4

[1] = 100 μM compound, 0.1 mM FdL-1 peptide, 0.5 mM NAD+
[2] = 100 μM compound, 0.1 mM FdL-2 peptide, 0.5 mM NAD+

T4 sequence (Q8N6T7 13-308): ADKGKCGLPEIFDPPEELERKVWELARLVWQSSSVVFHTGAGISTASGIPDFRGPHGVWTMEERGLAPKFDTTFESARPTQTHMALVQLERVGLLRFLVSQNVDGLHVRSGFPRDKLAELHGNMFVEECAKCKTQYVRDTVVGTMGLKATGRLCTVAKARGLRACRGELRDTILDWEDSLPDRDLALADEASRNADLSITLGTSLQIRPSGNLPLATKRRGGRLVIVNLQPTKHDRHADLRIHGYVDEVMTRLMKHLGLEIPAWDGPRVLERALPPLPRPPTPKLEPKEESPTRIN

| Compound | Effect on the activity of Sirt5 (Sirt5; [1]) | Effect on the activity of Sirt2 (Sirt2; [2]) | Effect on the activity of Sirt3 (Sirt3; [2]) | Effect on the activity of Sirt6 (Sirt6; [1]) | Effect on the activity of Sirt5 (Sirt5) | Effect on the activity of Sirt2 (Sirt2) | Effect on the activity of Sirt3 (Sirt3) | Effect on the activity of Sirt6 (Sirt6) |
| --- | --- | --- | --- | --- | --- | --- | --- | --- |
| Cc1ccc(C(=N)c2ccccc2Cc2cccc3ccccc23)c2ccccc12 [CSC24, (4-methyl-1-naphthyl)(2-(1-naphthylmethyl)phenyl)methanimine] | --- (no such effect) | inhibition (significant inhibitory effects (>25% loss of activity)) | --- (no such effect) | --- (no such effect) | – | – | – | – |
| O=C1c2cccc([N+](=O)[O-])c2C(=O)N1c1ncn[nH]1 [CSC25, 4-(hydroxy(oxido)amino)-2-(1H-1,2,4-triazol-5-yl)-1H-isoindole-1,3(2H)-dione] | --- (no such effect) | --- (no such effect) | --- (no such effect) | --- (no such effect) | – | – | – | – |
| Cc1ccc(C2(C)CCC(=NN=C3CCC(C)(c4ccc(C)c(C)c4)c4cc(C)c(C)cc43)c3cc(C)c(C)cc32)cc1C (stereo not shown) [CSC26, 4-(3,4-dimethylphenyl)-4,6,7-trimethyl-3,4-dihydro-1(2H)-naphthalenone (4-(3,4-dimethylphenyl)-4,6,7-trimethyl-3,4-dihydro-1(2H)-naphthalenylidene)hydrazone] | --- (no such effect) | --- (no such effect) | --- (no such effect) | --- (no such effect) | – | – | – | – |
| O=C1c2ccccc2C(=O)c2c1ccc(N1C(=O)c3ccccc3C1=O)c2-c1c(N2C(=O)c3ccccc3C2=O)ccc2c1C(=O)c1ccccc1C2=O [CSC27] | --- (no such effect) | inhibition (significant inhibitory effects (>25% loss of activity)) | --- (no such effect) | inhibition (significant inhibitory effects (>25% loss of activity)) | – | – | – | – |
| O=C1OC2(c3ccc(O)cc3Oc3cc(O)ccc32)c2c1c(-c1ccccc1)c(-c1ccccc1)c(-c1ccccc1)c2-c1ccccc1 [CSC28] | --- (no such effect) | inhibition (significant inhibitory effects (>25% loss of activity)) | --- (no such effect) | activation | – | – | – | – |
| O=C1C2C(c3ccccc3)NC(c3ccccc3)C1C(c1ccccc1)NC2c1ccccc1 (stereo not shown) [CSC29, 2,4,6,8-tetraphenyl-3,7-diazabicyclo[3.3.1]nonan-9-one] | --- (no such effect) | --- (no such effect) | --- (no such effect) | --- (no such effect) | – | – | – | – |
| O=C1C=C(Nc2nc(O)cc(C(=O)O)n2)c2ccccc2C1=O [CSC30, 2-((3,4-dioxo-3,4-dihydro-1-naphthalenyl)amino)-6-hydroxy-4-pyrimidinecarboxylic acid] | --- (no such effect) | --- (no such effect) | --- (no such effect) | --- (no such effect) | – | – | – | – |
| O=c1c2ccccc2c2ccccc2c(=O)n1-c1cc2c3ccccc3ccc2c2ccccc12 [CSC31, 6-(6-chrysenyl)-5H-dibenzo[c,e]azepine-5,7(6H)-dione] | – | – | – | – | --- (key: inhibition: significant inhibitory effects (>25% loss of activity); ---: no such effect) | --- (key: inhibition: significant inhibitory effects (>25% loss of activity); ---: no such effect) | --- (key: inhibition: significant inhibitory effects (>25% loss of activity); ---: no such effect) | --- (key: inhibition: significant inhibitory effects (>25% loss of activity); ---: no such effect) |
| COc1ccc2c(c1)Cc1cc(/N=[N+](\[O-])c3ccc4c(c3)Cc3cc(OC)ccc3-4)ccc1-2 [CSC32, 1-hydroxy-1,2-bis(7-methoxy-9H-fluoren-2-yl)-1^5-diazene] | --- (no such effect) | inhibition (significant inhibitory effects (>25% loss of activity)) | --- (no such effect) | --- (no such effect) | – | – | – | – |
| O=S1(=O)C(c2ccccc2)C(N2CCCCC2)C1C1CC2c3ccccc3C1c1ccccc12 (stereo not shown) [CSC33] | activation | --- (no such effect) | --- (no such effect) | activation | – | – | – | – |
| O=C1C2C3c4ccccc4C(C2C(=O)N1c1ccc(OCc2ccccc2)cc1)[n+]1ccccc13 (stereo not shown) [CSC34] | --- (no such effect) | inhibition (significant inhibitory effects (>25% loss of activity)) | --- (no such effect) | activation | – | – | – | – |
| O=C1c2ccccc2C(=O)c2c(NC(=O)c3ccc4c5c(ncnc35)-c3ccccc3C4=O)cccc21 [CSC36, N-(9,10-dioxo-9,10-dihydro-1-anthracenyl)-7-oxo-7H-benzo[e]perimidine-4-carboxamide, (Pigment Yellow 108)] | --- (no such effect) | --- (no such effect) | --- (no such effect) | --- (no such effect) | – | – | – | – |
| Clc1ccc(-c2noc(CN3CCCCC3)n2)cc1 [CSC37, 1-((3-(4-chlorophenyl)-1,2,4-oxadiazol-5-yl)methyl)piperidine] | --- (no such effect) | inhibition (significant inhibitory effects (>25% loss of activity)) | --- (no such effect) | --- (no such effect) | – | – | – | – |
